Laboratory results published in patent US8097656B2, “Nitrogenated trans-stilbene analogs, method for the obtention and medical applications thereof” (Dominion Pharmakine S.L, priority 2005, dated 2012).

Key:
[1] = system: human HSC; assay: Migration of human HSCs treated with MC-MA375 (modified Boyden chamber); type: cell-based; conditions: for Increase in migration of HSC induced by MC-A375 (in words): 12.5 μM 30 min prior to MC-A375; for Migration of human HSC's treated with MC-MA375 (No. cells migrated per field): 12.5 μM, 30 min before MC-MA375, 4 h, control 10.0 ± 4, treatment alone 91.5 ± 19
Source text: (§1) isolation of primary human cultures of hepatic sinusoidal endothelial (HSE) hepatic stellate cells (HSCs). The primary cultures of human HSE and HSC cells were obtained by non-tumoral hepatic tissue serial profusion with collagenase and pronase solutions, followed by Nycodenz gradient and seeded on 24-well plates (0.5×10^4 cells/cm^2) in DMEM. supplemented with 10% FBS.
(§2) Human HSC and HSE cell migration tests (see Table 3). Primary cultured hepatic endothelial cells (25×10^5) or hepatic stellate cells (2×10^4) were seeded in the upper compartment of modified Boyden chambers equipped with a polycarbonate filter of an 8 μm pore size. Some cells were incubated in the presence or absence of 12.5 μM of azaresveratrol, 30 minutes prior to adding conditioned tumor medium. Twenty-four (24) hours later (in the case of the endothelial cells) or 4 hours later (in the case of hepatic star cells) the number of cells having passed through the membrane was determined. The cells were fixed, were stained with hematoxylin eosine and were counted under the microscope (20×) in 5 fields per well.

[2] = system: human HSC; assay: Proliferation of human HSCs treated with MC-MA375; type: cell-based; conditions: for Increase in HSC proliferation in response to MC-A375 (in words): 12.5 μM 30 min prior to MC-A375; for Proliferation of human HSC's treated with MC-MA375 (No. cells per well): 12.5 μM, 30 min before MC-MA375, 48 h, control 2550 ± 22, treatment alone 4400 ± 30
Experimental: as §1
HSC proliferation test. Primary cultured human HSC cultures were seeded (2500 cells/well/200 μl) in DMEM with 10% FBS. Once adhered, they were washed to remove the FBS and were incubated with fresh medium in the presence or absence of 12.5 μM of the azaresveratrol compound (see Table 3). Thirty (30) minutes later, conditioned media obtained from MA375 cells were added to some wells, and the plates were incubated for 48 hours in humid incubator at 37° C. with 5% CO2. Upon completion of the incubation time, the cells were fixed and were processed for counting just as previously described hereinabove.

[3] = system: HSE cells; assay: Migration of HSE cells treated with MC-MA375 (modified Boyden chamber); type: cell-based, human; conditions: for Increase in migration of HSE induced by MC-A375 (in words): 12.5 μM 30 min prior to MC-A375; for Migration of HSE's treated with MC-MA375 (No. cells per field): 12.5 μM, 30 min before MC-MA375, 24 h, control 10.0 ± 4, treatment alone 35.0 ± 8.0
Source text: as §1, §2

[4] = system: MB16-Luc cells; assay: Hepatic retention of luciferase-transfected MB16 cells (MB16-Luc); type: in vivo, C57BL/6J mice; conditions: 2 doses of 1 mg/kg/day nasogastrically; 18 h after intrasplenic injection; control 1.80 ± 0.23
Source text: Test of hepatic retention of luciferase-transfected MB16 cells (MB16-Luc) (see Table 1). B16M Cells were stably transfected by lipofection as described previously (Rubio N, Martinez-Villacampa M, Blanco J. Traffic to lymph nodes of PC-3 prostate tumor cells in nude mice visualized using the luciferase gene as a tumor cell marker. Lab Invest 1998; 78:1315-1325), using plasmid pRc/cytomegalovirus-luciferase, a construct containing the Photinus pyralis luciferase gene coding sequence under transcriptional control of the cytomegalovirus promoter and the neomycin resistance gene to the G418 antibiotic (Sigma Chemicals Co.). A total of 300,000 viable B16M-Luc cells were intrasplenically injected into C57BL/6J mice (10 mice per group) which had previously been nasogastrically administered 2 doses of 1 mg/kg/day of compound to be tested. One group of mice received resveratrol, the other group of mice received azaresveratrol. […] Production of light was measured using a luminometer designed to read individual samples tubes (bioorbit, LKB Wallac; Turku, Finland) after the addition of 100 μl of luciferase assay reagent to 20 μl of each liver homogenate. […] Linearity and sensitivity of light detection in liver homogenates and influence of hepatic microenvironment on luciferase activity of B16M-Luc were also evaluated as described previously (Rubio et al, 1998).

[5] = system: MA375 cells; assay: MA375 cell adhesion to immobilized VCAM-1 substrates; type: cell-based, human; conditions: 2.5 μM; for Adhesion of MA375 cells with H2O2 to immobilized VCAM-1 (% cells adhered): 10 μM H2O2, control 21.0 ± 4, H2O2 alone 41.3 ± 4.2; for Adhesion of MA375 cells treated with IL-18 to immobilized VCAM-1 (% cells adhered): control 21.0 ± 4, IL-18 alone 31.5 ± 3.2
Experimental: MB16 and MA375 cell adhesion to immobilized VCAM-1 substrates. The MB16 and MA375 cell adhesion tests were conducted on immobilized VCAM-1 substrates (2 μg/ml of recombinant human VCAM-1, R&D Systems, Minneapolis, Minn.) on 96-well plates. To avoid non-specific attachment to the plastic, 0.5% BSA dissolved in PBS was added to the wells for 2 hours at ambient temperature prior to conducting the adhesion test. The melanoma cells were preincubated with 2.5 μM of the compounds to be tested (azaresveratrol, see Table 2; JE1:2, JE2:1 and JE2:2 see FIG. 2; JEM2:2-01 and JEM2:1-02 see FIG. 7; YEF02, YEF03, YEF07, YEF05B, YEF07B and YEF05H. see FIG. 9) for 30 minutes, to which 10 μM of hydrogen peroxide or 10 ng/ml of IL-18 were added, respectively for a further 24 hours. Afterward, the cells were washed and marked with the BCECF-AM fluorescent probe (carboxyfluorescein, 2′,7′-bis-(2-carboxy-ethyl)-5-(6)carboxyfluorescein aminoxymethyl ester). Thirty minutes later, a washing process was performed to remove the excess fluorochromium, the number of viable cells being calculated by means of the trypan blue exclusion test and (5×10^4 cells/well) being added to the 96-well plate. The co-culture plates were incubator-incubated at 37° C. for 1 hours. The percentage of cellular adhesion was calculated by measuring the fluorescence emitted by the adhered cells (obtained after washing the plate) with regard to the fluorescence emitted by the total number of cells added. The results in the figures are given in values related to the adhesion percentages of the untreated melanoma cells.

Structure (SMILES): Oc1ccc(/N=C/c2cc(O)cc(O)c2)cc1 [azaresveratrol, 5-((E)-(4-Hydroxyphenylimino)methyl)benzene-1,3-diol]
- Increase in migration of HSC induced by MC-A375 (in words) [1]: abolished
- Migration of human HSC's treated with MC-MA375 (No. cells migrated per field) [1]: 6.0 ± 1.3 No. cells migrated per field
- Increase in HSC proliferation in response to MC-A375 (in words) [2]: abrogated
- Proliferation of human HSC's treated with MC-MA375 (No. cells per well) [2]: 2600 ± 60 No. cells per well
- Increase in migration of HSE induced by MC-A375 (in words) [3]: abolished
- Migration of HSE's treated with MC-MA375 (No. cells per field) [3]: 15.5 ± 30 No. cells per field
- Hepatic retention of MB16 Luc cells (No. cells × 10^6) [4]: 0.98 ± 0.24 No. cells × 10^6
- Adhesion of MA375 cells with H2O2 to immobilized VCAM-1 (% cells adhered) [5]: 4.5 ± 0.3 % cells adhered
- Adhesion of MA375 cells treated with IL-18 to immobilized VCAM-1 (% cells adhered) [5]: 5.0 ± 0.3 % cells adhered

Structure (SMILES): Oc1ccc(C=Cc2cc(O)cc(O)c2)cc1 [resveratrol, reference compound]
- Increase in migration of HSC induced by MC-A375 (in words) [1]: abolished
- Migration of human HSC's treated with MC-MA375 (No. cells migrated per field) [1]: 6.5 ± 1.4 No. cells migrated per field
- Increase in HSC proliferation in response to MC-A375 (in words) [2]: abrogated
- Proliferation of human HSC's treated with MC-MA375 (No. cells per well) [2]: 2250 ± 100 No. cells per well
- Increase in migration of HSE induced by MC-A375 (in words) [3]: abolished
- Migration of HSE's treated with MC-MA375 (No. cells per field) [3]: 13.5 ± 5.0 No. cells per field
- Hepatic retention of MB16 Luc cells (No. cells × 10^6) [4]: 1.05 ± 0.3 No. cells × 10^6
- Adhesion of MA375 cells with H2O2 to immobilized VCAM-1 (% cells adhered) [5]: 6.5 ± 0.5 % cells adhered
- Adhesion of MA375 cells treated with IL-18 to immobilized VCAM-1 (% cells adhered) [5]: 5.5 ± 0.4 % cells adhered
